Reference: article PMC8822347, “Sustained Control of Pyruvate Carboxylase by the Essential Second Messenger Cyclic di-AMP in Bacillus subtilis” (mBio, 2022)

How the values were obtained:
[1] = target: T1, PC; pyruvate carboxylase (PycA) (Bacillus subtilis, UniProt Q9KWU4); assay: malate dehydrogenase-coupled NADH oxidation, […] nm; assay type: biochemical
T1 construct: gene pyc; full length (1148 residues), C-terminal 6xHis (pET28a, pGP3458), from E. coli Rosetta(DE3), biotinylated with BirA; tetrameric

[2] = target: DarB (Bacillus subtilis, UniProt O31698); details: 26 µM c-di-AMP, 2.6 µM DarB, 0.26 µM PC, 25 mM KHCO3, 2.5 mM pyruvate, 0.1 mM acetyl-CoA; c-di-AMP acts on DarB, not on PC
Chain of DarB (Bacillus subtilis, UniProt O31698) (O31698 whole entry): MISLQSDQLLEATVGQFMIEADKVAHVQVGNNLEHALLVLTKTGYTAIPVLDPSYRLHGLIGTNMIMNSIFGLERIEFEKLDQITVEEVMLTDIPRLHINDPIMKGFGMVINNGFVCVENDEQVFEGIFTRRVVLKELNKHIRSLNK

[3] = target: DarB (Bacillus subtilis, UniProt O31698, L38F); details: 20 °C; 10 µM DarB-L38F in cell, 100 µM c-di-AMP in syringe
[4] = substrate: CC(=O)C(=O)O; assay: purified protein; assay type: biochemical, Bacillus subtilis; details: 0.1 mM acetyl-CoA, 2 mM ATP, 25 mM KHCO3, 5 mM MgCl2, 150 mM KCl, pH 7.8, 25 °C, no DarB
[5] = target: T2, PC-6×His (pyruvate carboxylase), biotinylated (B. subtilis, UniProt Q9KWU4 1-1148, biotin (naturally biotinylated or biotinylated in vitro with BirA)); assay: pull-down; 2 nmol biotinylated PC-6×His or PC^CT+BCCP-6×His on 250 μl StrepTactin matrix with 15 nmol DarB, DarB^L38F or YlxR, overnight at 4°C; washed with dialysis buffer (10 mM Tris pH 7.8, 150 mM KCl, 6 mM β-mercaptoethanol, 5% glycerol); eluted with 7 mM biotin; Western blot, silver stain, mass spectrometry; also with DarB preincubated with c-di-AMP (150 nmol; less DarB bound) and with acetyl-CoA (more DarB …); details: both partners purified
T2 construct: pyruvate carboxylase (PC), encoded by pycA, Bacillus subtilis 168; wild type; domains BC, CT, BCCP; also called His-PC; PycA; source: E. coli Rosetta(DE3) (pGP3458), purified (Ni-NTA, StrepTactin); biotinylated in vitro with purified BirA; not shown: 6×His, C-terminal, kept
T2 sequence (looked up): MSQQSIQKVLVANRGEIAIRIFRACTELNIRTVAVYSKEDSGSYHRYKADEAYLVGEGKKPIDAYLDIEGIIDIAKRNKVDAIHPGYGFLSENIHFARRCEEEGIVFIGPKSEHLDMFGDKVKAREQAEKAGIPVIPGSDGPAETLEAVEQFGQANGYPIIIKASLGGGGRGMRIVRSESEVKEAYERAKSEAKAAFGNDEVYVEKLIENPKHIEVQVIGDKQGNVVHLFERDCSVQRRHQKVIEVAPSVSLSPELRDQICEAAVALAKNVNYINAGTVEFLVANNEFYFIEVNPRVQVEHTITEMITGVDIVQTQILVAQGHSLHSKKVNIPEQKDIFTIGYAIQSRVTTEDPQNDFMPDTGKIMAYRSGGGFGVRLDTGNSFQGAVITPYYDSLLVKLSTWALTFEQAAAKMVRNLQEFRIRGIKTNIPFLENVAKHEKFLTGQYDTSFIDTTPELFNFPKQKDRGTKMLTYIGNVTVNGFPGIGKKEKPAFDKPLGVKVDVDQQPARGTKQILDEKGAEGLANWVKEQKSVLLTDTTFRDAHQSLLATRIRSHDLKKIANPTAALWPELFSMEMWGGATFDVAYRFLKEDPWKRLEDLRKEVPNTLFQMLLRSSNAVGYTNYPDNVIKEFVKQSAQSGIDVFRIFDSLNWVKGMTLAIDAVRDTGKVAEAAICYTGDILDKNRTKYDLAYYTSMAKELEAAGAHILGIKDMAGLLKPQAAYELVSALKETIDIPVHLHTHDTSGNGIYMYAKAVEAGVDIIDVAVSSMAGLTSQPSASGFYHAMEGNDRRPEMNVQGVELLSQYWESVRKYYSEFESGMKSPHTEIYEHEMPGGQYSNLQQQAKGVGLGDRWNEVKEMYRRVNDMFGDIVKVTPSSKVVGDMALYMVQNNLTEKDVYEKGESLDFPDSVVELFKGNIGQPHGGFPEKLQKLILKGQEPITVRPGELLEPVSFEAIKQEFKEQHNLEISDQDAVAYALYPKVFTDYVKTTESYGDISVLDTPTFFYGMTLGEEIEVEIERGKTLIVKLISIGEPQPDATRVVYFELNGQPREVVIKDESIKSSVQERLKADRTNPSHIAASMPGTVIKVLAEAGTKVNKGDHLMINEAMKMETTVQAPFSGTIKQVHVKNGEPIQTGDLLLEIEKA

With `N[C@@H](CC(=O)O)C(=O)O` [aspartate] the “malate dehydrogenase-coupled NADH oxidation, 340 nm” value ([1]; allosteric inhibitor, 16 mM aspartate with 0.1 mM acetyl-CoA, 2.5 mM pyruvate, DarB or BSA present) was “DarB was no longer able to activate PC in the presence of aspartate”.

With `CC(=O)SCCNC(=O)CCNC(=O)[C@H](O)C(C)(C)COP(=O)(O)OP(=O)(O)OC[C@H]1O[C@@H](n2cnc3c(N)ncnc32)[C@H](O)[C@@H]1OP(=O)(O)O` [acetyl-CoA] the “malate dehydrogenase-coupled NADH oxidation, 340 nm” value ([1]; allosteric activator, 25 mM KHCO3, 2.5 mM pyruvate, pH 7.8, 25 °C, various acetyl-CoA concentrations) was “the activity of PC was strongly enhanced in the presence of acetyl-CoA”.

With `Nc1ncnc2c1ncn2[C@@H]1O[C@@H]2COP(=O)(O)O[C@H]3[C@@H](O)[C@H](n4cnc5c(N)ncnc54)O[C@@H]3COP(=O)(O)O[C@H]2[C@H]1O` [c-di-AMP] the “activation by DarB inhibited to” value [2] was 16% and the KD [3] was “the mutant protein binds c-di-AMP with a similar affinity as the wild-type protein”.

B1: PC; pyruvate carboxylase (PycA) (Bacillus subtilis subsp. subtilis str. 168) (protein)
chain: MSQQSIQKVLVANRGEIAIRIFRACTELNIRTVAVYSKEDSGSYHRYKADEAYLVGEGKKPIDAYLDIEGIIDIAKRNKVDAIHPGYGFLSENIHFARRCEEEGIVFIGPKSEHLDMFGDKVKAREQAEKAGIPVIPGSDGPAETLEAVEQFGQANGYPIIIKASLGGGGRGMRIVRSESEVKEAYERAKSEAKAAFGNDEVYVEKLIENPKHIEVQVIGDKQGNVVHLFERDCSVQRRHQKVIEVAPSVSLSPELRDQICEAAVALAKNVNYINAGTVEFLVANNEFYFIEVNPRVQVEHTITEMITGVDIVQTQILVAQGHSLHSKKVNIPEQKDIFTIGYAIQSRVTTEDPQNDFMPDTGKIMAYRSGGGFGVRLDTGNSFQGAVITPYYDSLLVKLSTWALTFEQAAAKMVRNLQEFRIRGIKTNIPFLENVAKHEKFLTGQYDTSFIDTTPELFNFPKQKDRGTKMLTYIGNVTVNGFPGIGKKEKPAFDKPLGVKVDVDQQPARGTKQILDEKGAEGLANWVKEQKSVLLTDTTFRDAHQSLLATRIRSHDLKKIANPTAALWPELFSMEMWGGATFDVAYRFLKEDPWKRLEDLRKEVPNTLFQMLLRSSNAVGYTNYPDNVIKEFVKQSAQSGIDVFRIFDSLNWVKGMTLAIDAVRDTGKVAEAAICYTGDILDKNRTKYDLAYYTSMAKELEAAGAHILGIKDMAGLLKPQAAYELVSALKETIDIPVHLHTHDTSGNGIYMYAKAVEAGVDIIDVAVSSMAGLTSQPSASGFYHAMEGNDRRPEMNVQGVELLSQYWESVRKYYSEFESGMKSPHTEIYEHEMPGGQYSNLQQQAKGVGLGDRWNEVKEMYRRVNDMFGDIVKVTPSSKVVGDMALYMVQNNLTEKDVYEKGESLDFPDSVVELFKGNIGQPHGGFPEKLQKLILKGQEPITVRPGELLEPVSFEAIKQEFKEQHNLEISDQDAVAYALYPKVFTDYVKTTESYGDISVLDTPTFFYGMTLGEEIEVEIERGKTLIVKLISIGEPQPDATRVVYFELNGQPREVVIKDESIKSSVQERLKADRTNPSHIAASMPGTVIKVLAEAGTKVNKGDHLMINEAMKMETTVQAPFSGTIKQVHVKNGEPIQTGDLLLEIEKA
notes: full length (1148 residues), C-terminal 6xHis (pET28a, pGP3458), from E. coli Rosetta(DE3), biotinylated with BirA; tetrameric
B1 showed a Km [4] of 230 µM.

B2: DarB^L38F, purified, SUMO tag removed (natural protein, B. subtilis)
chain: MISLQSDQLLEATVGQFMIEADKVAHVQVGNNLEHALFVLTKTGYTAIPVLDPSYRLHGLIGTNMIMNSIFGLERIEFEKLDQITVEEVMLTDIPRLHINDPIMKGFGMVINNGFVCVENDEQVFEGIFTRRVVLKELNKHIRSLNK
notes: DarB, Bacillus subtilis 168, with Leu38 changed to Phe; also called DarB mutant L38F; the mutant protein; source: E. coli Rosetta(DE3) (pGP3481), purified (Ni-NTA; SUMO tag removed with SUMO protease); not shown: 6×His, N-terminal, cleaved; SUMO, N-terminal, cleaved
B2: binds [5].
